Measurements published in patent US10239869B2, “Sulfonamide compounds as voltage-gated sodium channel modulators” (LUPIN LIMITED, priority 2015, dated 2019).
Where two headings read alike, the source gives them in different places.

How the values were obtained:
[1] = target: Nav 1.5 (Homo sapiens (Human), UniProt Q14524); assay: Inhibition of sodium channels, Red Membrane Potential Dye FLIPR assay, veratridine depolarization; format: cell-based; conditions: HEK-293 cells overexpressing the channel
[2] = target: Nav 1.7 (Homo sapiens (Human), UniProt Q15858); assay: as above; format: cell-based; conditions: HEK-293 cells overexpressing the channel; for IC50: read-out: Nav1.7 IC50
[3] = read-out: Nav1.5 IC50 (bound given in μM)

Sequence of Nav 1.5 (Q14524 whole entry): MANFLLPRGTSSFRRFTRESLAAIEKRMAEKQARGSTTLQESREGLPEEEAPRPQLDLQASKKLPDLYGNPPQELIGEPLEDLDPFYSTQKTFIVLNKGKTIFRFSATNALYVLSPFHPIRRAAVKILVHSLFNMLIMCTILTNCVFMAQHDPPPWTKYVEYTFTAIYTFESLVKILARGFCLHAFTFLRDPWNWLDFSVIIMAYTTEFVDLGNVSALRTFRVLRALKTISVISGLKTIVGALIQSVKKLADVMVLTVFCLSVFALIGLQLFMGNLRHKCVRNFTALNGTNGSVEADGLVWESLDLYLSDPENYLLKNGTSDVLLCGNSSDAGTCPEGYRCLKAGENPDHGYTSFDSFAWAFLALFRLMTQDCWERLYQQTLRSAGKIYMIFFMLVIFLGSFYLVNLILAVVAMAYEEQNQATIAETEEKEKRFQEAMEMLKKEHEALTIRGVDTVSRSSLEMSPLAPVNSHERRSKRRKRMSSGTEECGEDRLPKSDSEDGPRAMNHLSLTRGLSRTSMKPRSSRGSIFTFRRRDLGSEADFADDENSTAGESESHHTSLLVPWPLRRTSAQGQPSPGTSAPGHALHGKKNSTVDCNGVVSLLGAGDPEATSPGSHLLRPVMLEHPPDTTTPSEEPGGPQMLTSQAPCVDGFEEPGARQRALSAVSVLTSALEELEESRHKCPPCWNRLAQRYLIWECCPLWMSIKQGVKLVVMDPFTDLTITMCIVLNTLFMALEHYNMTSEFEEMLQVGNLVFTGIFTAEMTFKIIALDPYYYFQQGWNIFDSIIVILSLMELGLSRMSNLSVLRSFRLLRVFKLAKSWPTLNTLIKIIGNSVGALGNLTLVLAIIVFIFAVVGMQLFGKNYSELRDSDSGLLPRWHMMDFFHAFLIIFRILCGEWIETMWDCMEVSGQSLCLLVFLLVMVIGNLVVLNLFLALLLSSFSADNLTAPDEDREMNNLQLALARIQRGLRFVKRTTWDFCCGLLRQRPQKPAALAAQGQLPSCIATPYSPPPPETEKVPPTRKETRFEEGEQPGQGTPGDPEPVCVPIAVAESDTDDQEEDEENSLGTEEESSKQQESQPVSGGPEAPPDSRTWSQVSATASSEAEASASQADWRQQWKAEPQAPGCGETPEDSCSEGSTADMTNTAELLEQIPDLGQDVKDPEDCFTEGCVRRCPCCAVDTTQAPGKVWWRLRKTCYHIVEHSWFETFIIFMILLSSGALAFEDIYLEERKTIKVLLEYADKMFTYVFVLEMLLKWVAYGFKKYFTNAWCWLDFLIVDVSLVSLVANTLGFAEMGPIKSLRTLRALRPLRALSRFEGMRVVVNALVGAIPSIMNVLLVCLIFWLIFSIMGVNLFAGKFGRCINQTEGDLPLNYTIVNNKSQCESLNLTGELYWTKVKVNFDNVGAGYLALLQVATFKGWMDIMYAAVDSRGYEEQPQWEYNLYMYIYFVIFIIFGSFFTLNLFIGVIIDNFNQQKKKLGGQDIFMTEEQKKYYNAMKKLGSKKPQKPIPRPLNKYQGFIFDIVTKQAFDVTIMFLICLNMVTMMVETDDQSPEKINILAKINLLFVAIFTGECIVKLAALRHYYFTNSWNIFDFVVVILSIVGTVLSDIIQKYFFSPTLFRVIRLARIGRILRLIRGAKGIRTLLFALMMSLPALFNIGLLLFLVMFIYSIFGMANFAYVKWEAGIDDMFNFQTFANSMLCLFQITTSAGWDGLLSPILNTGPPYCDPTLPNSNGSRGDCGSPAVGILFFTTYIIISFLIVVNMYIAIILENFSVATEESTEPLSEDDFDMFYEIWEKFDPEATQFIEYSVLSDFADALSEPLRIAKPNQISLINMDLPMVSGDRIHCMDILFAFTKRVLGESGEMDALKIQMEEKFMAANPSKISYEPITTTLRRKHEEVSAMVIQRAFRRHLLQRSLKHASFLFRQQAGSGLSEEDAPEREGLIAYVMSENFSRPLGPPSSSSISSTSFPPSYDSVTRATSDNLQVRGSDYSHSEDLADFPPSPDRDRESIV
Sequence of Nav 1.7 (Q15858 whole entry): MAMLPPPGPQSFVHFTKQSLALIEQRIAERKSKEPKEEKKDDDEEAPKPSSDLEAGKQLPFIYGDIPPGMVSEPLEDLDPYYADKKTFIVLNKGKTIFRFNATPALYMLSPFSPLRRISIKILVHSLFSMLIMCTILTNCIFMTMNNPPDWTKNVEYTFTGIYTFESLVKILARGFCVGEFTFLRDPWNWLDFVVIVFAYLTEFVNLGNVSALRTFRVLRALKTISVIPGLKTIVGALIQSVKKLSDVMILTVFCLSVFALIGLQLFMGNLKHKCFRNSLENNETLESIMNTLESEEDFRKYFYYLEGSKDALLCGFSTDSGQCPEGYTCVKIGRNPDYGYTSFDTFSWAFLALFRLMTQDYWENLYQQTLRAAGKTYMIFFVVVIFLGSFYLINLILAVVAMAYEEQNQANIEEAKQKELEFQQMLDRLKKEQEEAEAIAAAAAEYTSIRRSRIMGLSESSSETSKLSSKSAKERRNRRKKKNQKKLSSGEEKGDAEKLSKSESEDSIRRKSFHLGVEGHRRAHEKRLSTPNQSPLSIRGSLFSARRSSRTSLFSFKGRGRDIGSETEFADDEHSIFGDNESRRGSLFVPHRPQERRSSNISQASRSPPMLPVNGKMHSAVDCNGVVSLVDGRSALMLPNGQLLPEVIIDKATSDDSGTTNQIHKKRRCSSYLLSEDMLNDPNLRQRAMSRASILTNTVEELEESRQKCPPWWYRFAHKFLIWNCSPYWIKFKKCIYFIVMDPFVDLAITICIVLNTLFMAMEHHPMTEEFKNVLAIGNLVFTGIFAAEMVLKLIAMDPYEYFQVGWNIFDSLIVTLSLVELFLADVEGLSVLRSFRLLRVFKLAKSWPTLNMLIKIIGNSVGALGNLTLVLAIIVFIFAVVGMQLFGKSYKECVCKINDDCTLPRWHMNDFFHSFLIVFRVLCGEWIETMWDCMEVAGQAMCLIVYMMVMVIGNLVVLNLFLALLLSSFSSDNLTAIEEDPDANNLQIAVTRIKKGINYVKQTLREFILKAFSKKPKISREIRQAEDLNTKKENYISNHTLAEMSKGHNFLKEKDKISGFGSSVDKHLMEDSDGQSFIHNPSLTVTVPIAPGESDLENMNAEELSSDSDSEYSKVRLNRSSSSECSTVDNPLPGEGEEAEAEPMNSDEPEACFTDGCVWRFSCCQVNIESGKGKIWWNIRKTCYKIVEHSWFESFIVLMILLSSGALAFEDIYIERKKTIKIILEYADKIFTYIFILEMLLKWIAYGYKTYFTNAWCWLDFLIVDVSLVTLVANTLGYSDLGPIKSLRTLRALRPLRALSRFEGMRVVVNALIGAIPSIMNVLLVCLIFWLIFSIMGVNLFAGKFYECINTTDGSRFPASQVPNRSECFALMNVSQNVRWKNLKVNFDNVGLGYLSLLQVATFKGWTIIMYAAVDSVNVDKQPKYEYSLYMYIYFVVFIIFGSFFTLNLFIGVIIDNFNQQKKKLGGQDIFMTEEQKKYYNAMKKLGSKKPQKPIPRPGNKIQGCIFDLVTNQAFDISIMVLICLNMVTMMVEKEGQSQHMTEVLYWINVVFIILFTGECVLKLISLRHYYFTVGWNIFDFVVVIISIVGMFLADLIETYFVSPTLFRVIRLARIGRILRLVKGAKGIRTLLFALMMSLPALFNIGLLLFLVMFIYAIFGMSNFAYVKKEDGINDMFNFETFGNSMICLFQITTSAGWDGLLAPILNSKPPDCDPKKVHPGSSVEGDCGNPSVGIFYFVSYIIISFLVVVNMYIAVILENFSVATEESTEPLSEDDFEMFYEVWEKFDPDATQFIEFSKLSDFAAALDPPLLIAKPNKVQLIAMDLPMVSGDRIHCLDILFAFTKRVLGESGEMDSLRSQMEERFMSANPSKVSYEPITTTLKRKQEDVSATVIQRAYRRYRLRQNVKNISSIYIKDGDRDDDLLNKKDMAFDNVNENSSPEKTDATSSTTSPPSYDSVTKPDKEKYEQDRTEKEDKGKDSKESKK

Row | Compound | Nav1.5 % inhibition @ 10 μM [1] | IC50 [2] | IC50 [1, 3] | Nav1.7 inhibition @ 10 μM [2] | IC50 ([1]; read-out: Nav1.5 IC50)
1 | Cc1nc(-c2cc(C(F)(F)F)ccc2[C@H]2CCOc3cc(S(=O)(=O)Nc4ccncn4)ccc32)cs1 [Example 68, (S&R)-4-(2-(2-Methylthiazol-4-yl)-4-(trifluoromethyl)phenyl)-N-(pyrimidin-4-yl)chroman-7-sulfonamide] | 29% | 0.0009 µM |  |  | 
2 | Cc1nc(-c2cc(C(F)(F)F)ccc2[C@H]2CCOc3cc(S(=O)(=O)Nc4cccnn4)ccc32)cs1 [Example 70, (S&R)-4-(2-(2-Methylthiazol-4-yl)-4-(trifluoromethyl)phenyl)-N-(pyridazin-3-yl)chroman-7-sulfonamide] |  | 0.115 µM | > 10 µM |  | 
3 | Cc1nc(-c2cc(C(F)(F)F)ccc2[C@@H]2CCOc3cc(S(=O)(=O)Nc4cccnn4)ccc32)co1 [Example 79, (S&R)-4-(2-(2-methyloxazol-4-yl)-4-(trifluoromethyl)phenyl)-N-(pyridazin-3-yl)chroman-7-sulfonamide] |  | 2.52 µM | > 10 µM |  | 
4 | Cc1nc(-c2cc(C(F)(F)F)ccc2[C@H]2CCOc3cc(S(=O)(=O)Nc4cccnn4)ccc32)co1 [Example 80, (S&R)-4-(2-(2-methyloxazol-4-yl)-4-(trifluoromethyl)phenyl)-N-(pyridazin-3-yl)chroman-7-sulfonamide] | 53% | 0.114 µM |  |  | 
5 | CS(=O)(=O)CCc1cc(C(F)(F)F)ccc1[C@@H]1CCOc2cc(S(=O)(=O)Nc3cccc(F)n3)ccc21 [Example 81, (S&R)—N-(6-Fluoropyridin-2-yl)-4-(2-(2-(methylsulfonyl)ethyl)-4-(trifluoromethyl)phenyl)chroman-7-sulfonamide] | 34% | 0.993 µM |  |  | 
6 | CS(=O)(=O)CCc1cc(C(F)(F)F)ccc1[C@H]1CCOc2cc(S(=O)(=O)Nc3cccc(F)n3)ccc21 [Example 82, (S&R)—N-(6-Fluoropyridin-2-yl)-4-(2-(2-(methylsulfonyl)ethyl)-4-(trifluoromethyl)phenyl)chroman-7-sulfonamide] |  | 0.02 µM | > 10 µM |  | 
7 | CS(=O)(=O)CCc1cc(C(F)(F)F)ccc1[C@@H]1CCOc2cc(S(=O)(=O)Nc3ncccn3)ccc21 [Example 83, (S&R)-4-(2-(2-(Methylsulfonyl)ethyl)-4-(trifluoromethyl)phenyl)-N-(pyrimidin-2-yl)chroman-7-sulfonamide] |  |  | > 10 µM | 71% | 
8 | CS(=O)(=O)CCc1cc(C(F)(F)F)ccc1[C@H]1CCOc2cc(S(=O)(=O)Nc3ncccn3)ccc21 [Example 84, (S&R)-4-(2-(2-(Methylsulfonyl)ethyl)-4-(trifluoromethyl)phenyl)-N-(pyrimidin-2-yl)chroman-7-sulfonamide] |  | 2.58 µM | > 10 µM |  | 
9 | CS(=O)(=O)CCc1cc(C(F)(F)F)ccc1[C@@H]1CCOc2cc(S(=O)(=O)Nc3ncc(F)cn3)ccc21 [Example 85, (S&R)—N-(5-Fluoropyrimidin-2-yl)-4-(2-(2-(methylsulfonyl)ethyl)-4-(trifluoromethyl)phenyl)chroman-7-sulfonamide] |  | 2.72 µM | > 10 µM |  | 
10 | CS(=O)(=O)CCc1cc(C(F)(F)F)ccc1[C@H]1CCOc2cc(S(=O)(=O)Nc3ncc(F)cn3)ccc21 [Example 86, (S&R)—N-(5-Fluoropyrimidin-2-yl)-4-(2-(2-(methylsulfonyl)ethyl)-4-(trifluoromethyl)phenyl)chroman-7-sulfonamide] |  | 2.39 µM | > 10 µM |  | 
11 | CS(=O)(=O)CCc1cc(C(F)(F)F)ccc1[C@@H]1CCOc2cc(S(=O)(=O)Nc3ccncn3)ccc21 [Example 87, (S&R)-4-(2-(2-(Methylsulfonyl)ethyl)-4-(trifluoromethyl)phenyl)-N-(pyrimidin-4-yl) chroman-7-sulfonamide] |  |  | > 10 µM | 58% | 
12 | CS(=O)(=O)CCc1cc(C(F)(F)F)ccc1[C@H]1CCOc2cc(S(=O)(=O)Nc3ccncn3)ccc21 [Example 88, (S&R)-4-(2-(2-(Methylsulfonyl)ethyl)-4-(trifluoromethyl)phenyl)-N-(pyrimidin-4-yl) chroman-7-sulfonamide] |  | 0.626 µM | > 10 µM |  | 
13 | O=S(=O)(Nc1cccc(F)n1)c1ccc2c(c1)OCC[C@H]2c1ccc(C(F)(F)F)cc1-n1cccn1 [Example 89, (S&R)-4-(2-(1H-pyrazol-1-yl)-4-(trifluoromethyl)phenyl)-N-(6-fluoropyridin-2-yl)chroman-7-sulfonamide] |  | 0.108 µM | > 10 µM |  | 
14 | O=S(=O)(Nc1cccc(F)n1)c1ccc2c(c1)OCC[C@@H]2c1ccc(C(F)(F)F)cc1-n1cccn1 [Example 90, (S&R)-4-(2-(1H-pyrazol-1-yl)-4-(trifluoromethyl)phenyl)-N-(6-fluoropyridin-2-yl)chroman-7-sulfonamide] |  | 0.015 µM | > 10 µM |  | 
15 | CC(C)Oc1ccc(-c2cc(C(F)(F)F)ccc2[C@@H]2CCOc3cc(S(=O)(=O)Nc4ncccn4)ccc32)cn1 [Example 97, (S&R)-4-(2-(6-isopropoxypyridin-3-yl)-4-(trifluoromethyl)phenyl)-N-(pyrimidin-2-yl)chroman-7-sulfonamide] | 71% | 0.17 µM |  |  | 
16 | CC(C)Oc1ccc(-c2cc(C(F)(F)F)ccc2[C@H]2CCOc3cc(S(=O)(=O)Nc4ncccn4)ccc32)cn1 [Example 98, (S&R)-4-(2-(6-isopropoxypyridin-3-yl)-4-(trifluoromethyl)phenyl)-N-(pyrimidin-2-yl)chroman-7-sulfonamide] |  | 0.011 µM |  |  | 0.432 µM
17 | CC(C)Oc1ccc(-c2cc(C(F)(F)F)ccc2[C@@H]2CCOc3cc(S(=O)(=O)Nc4ncc(F)cn4)ccc32)cn1 [Example 99, (S&R)—N-(5-fluoropyrimidin-2-yl)-4-(2-(6-isopropoxypyridin-3-yl)-4-(trifluoromethyl)phenyl)chroman-7-sulfonamide] | 80% | 1.06 µM |  |  | 
18 | CC(C)Oc1ccc(-c2cc(C(F)(F)F)ccc2[C@H]2CCOc3cc(S(=O)(=O)Nc4ncc(F)cn4)ccc32)cn1 [Example 100, (S&R)—N-(5-fluoropyrimidin-2-yl)-4-(2-(6-isopropoxypyridin-3-yl)-4-(trifluoromethyl)phenyl)chroman-7-sulfonamide] |  | 0.075 µM | > 10 µM |  | 
19 | CCOc1ccc(-c2cc(C(F)(F)F)ccc2[C@@H]2CCOc3cc(S(=O)(=O)Nc4ncc(F)cn4)ccc32)cn1 [Example 101, (S&R)-4-(2-(6-ethoxypyridin-3-yl)-4-(trifluoromethyl)phenyl)-N-(5-fluoropyrimidin-2-yl)chroman-7-sulfonamide] | 51% | 2.59 µM |  |  | 
20 | CCOc1ccc(-c2cc(C(F)(F)F)ccc2[C@H]2CCOc3cc(S(=O)(=O)Nc4ncc(F)cn4)ccc32)cn1 [Example 102, (S&R)-4-(2-(6-ethoxypyridin-3-yl)-4-(trifluoromethyl)phenyl)-N-(5-fluoropyrimidin-2-yl)chroman-7-sulfonamide] |  | 0.039 µM | > 10 µM |  | 
21 | O=S(=O)(Nc1ncccn1)c1ccc2c(c1)OCC[C@H]2c1ccc(C(F)(F)F)cc1C1CCOCC1 [Example 109, (S&R)—N-(pyrimidin-2-yl)-4-(2-(tetrahydro-2H-pyran-4-yl)-4-(trifluoromethyl)phenyl)chroman-7-sulfonamide] |  | 0.74 µM | > 10 µM |  | 
22 | O=S(=O)(Nc1ncccn1)c1ccc2c(c1)OCC[C@@H]2c1ccc(C(F)(F)F)cc1C1CCOCC1 [Example 110, (S&R)—N-(pyrimidin-2-yl)-4-(2-(tetrahydro-2H-pyran-4-yl)-4-(trifluoromethyl)phenyl)chroman-7-sulfonamide] |  | 0.156 µM |  |  | 1.75 µM
23 | O=C1CCCN1c1cc(C(F)(F)F)ccc1[C@@H]1CCOc2cc(S(=O)(=O)Nc3cccc(F)n3)ccc21 [Example 111, (S&R)—N-(6-Fluoropyridin-2-yl)-4-(2-(2-oxopyrrolidin-1-yl)-4-(trifluoromethyl)phenyl)chroman-7-sulfonamide] | 67% | 0.814 µM |  |  | 
24 | O=C1CCCN1c1cc(C(F)(F)F)ccc1[C@H]1CCOc2cc(S(=O)(=O)Nc3cccc(F)n3)ccc21 [Example 112, (S&R)—N-(6-Fluoropyridin-2-yl)-4-(2-(2-oxopyrrolidin-1-yl)-4-(trifluoromethyl)phenyl)chroman-7-sulfonamide] | 65% | 0.801 µM |  |  | 
25 | O=C1CCCN1c1cc(C(F)(F)F)ccc1[C@@H]1CCOc2cc(S(=O)(=O)Nc3ncc(F)cn3)ccc21 [Example 113, (S&R)—N-(5-fluoropyrimidin-2-yl)-4-(2-(2-oxopyrrolidin-1-yl)-4-(trifluoromethyl)phenyl)chroman-7-sulfonamide] |  |  | > 10 µM | 65% | 
26 | O=C1CCCN1c1cc(C(F)(F)F)ccc1[C@H]1CCOc2cc(S(=O)(=O)Nc3ncc(F)cn3)ccc21 [Example 114, (S&R)—N-(5-fluoropyrimidin-2-yl)-4-(2-(2-oxopyrrolidin-1-yl)-4-(trifluoromethyl)phenyl)chroman-7-sulfonamide] |  | 0.624 µM | > 10 µM |  | 
27 | COCCOc1cc(C(F)(F)F)ccc1[C@@H]1CCOc2cc(S(=O)(=O)Nc3ncccn3)ccc21 [Example 124, (S&R)-4-(2-(2-methoxyethoxy)-4-(trifluoromethyl)phenyl)-N-(pyrimidin-2-yl)chroman-7-sulfonamide] | 71% | 2.23 µM |  |  | 
28 | COCCOc1cc(C(F)(F)F)ccc1[C@H]1CCOc2cc(S(=O)(=O)Nc3ncccn3)ccc21 [Example 125, (S&R)-4-(2-(2-methoxyethoxy)-4-(trifluoromethyl)phenyl)-N-(pyrimidin-2-yl)chroman-7-sulfonamide] |  | 0.395 µM |  |  | 2.64 µM
29 | COCCCOc1cc(C(F)(F)F)ccc1[C@@H]1CCOc2cc(S(=O)(=O)Nc3ncccn3)ccc21 [Example 130, (S&R)-4-(2-(3-methoxypropoxy)-4-(trifluoromethyl)phenyl)-N-(pyrimidin-2-yl)chroman-7-sulfonamide] |  | 1.69 µM | > 10 µM |  | 
